Where two headings read alike, the source gives them in different places.
What was measured:
κ opioid receptor (KOR) = target: T1, κ opioid receptor (KOR) (Homo sapiens, UniProt P41145); experiment: cell-based; type: cell-based
T1 construct: expressed in transfected cells

μ opioid receptor (MOR) = target: T2, μ opioid receptor (MOR) (Homo sapiens, UniProt P35372); experiment: cell-based; type: cell-based
T2 construct: expressed in transfected cells
T2 sequence (P35372 whole entry): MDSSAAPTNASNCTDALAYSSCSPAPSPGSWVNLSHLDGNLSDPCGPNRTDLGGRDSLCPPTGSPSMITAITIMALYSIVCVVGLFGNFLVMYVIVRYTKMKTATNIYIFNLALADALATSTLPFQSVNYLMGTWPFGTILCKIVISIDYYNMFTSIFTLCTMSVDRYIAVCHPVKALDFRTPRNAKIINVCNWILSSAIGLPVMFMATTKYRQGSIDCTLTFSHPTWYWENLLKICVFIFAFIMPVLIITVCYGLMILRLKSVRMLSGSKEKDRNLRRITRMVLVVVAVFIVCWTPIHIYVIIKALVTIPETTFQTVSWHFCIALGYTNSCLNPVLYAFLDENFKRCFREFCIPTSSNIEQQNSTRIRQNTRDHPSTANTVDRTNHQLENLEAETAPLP

T1 sequence (P41145 whole entry): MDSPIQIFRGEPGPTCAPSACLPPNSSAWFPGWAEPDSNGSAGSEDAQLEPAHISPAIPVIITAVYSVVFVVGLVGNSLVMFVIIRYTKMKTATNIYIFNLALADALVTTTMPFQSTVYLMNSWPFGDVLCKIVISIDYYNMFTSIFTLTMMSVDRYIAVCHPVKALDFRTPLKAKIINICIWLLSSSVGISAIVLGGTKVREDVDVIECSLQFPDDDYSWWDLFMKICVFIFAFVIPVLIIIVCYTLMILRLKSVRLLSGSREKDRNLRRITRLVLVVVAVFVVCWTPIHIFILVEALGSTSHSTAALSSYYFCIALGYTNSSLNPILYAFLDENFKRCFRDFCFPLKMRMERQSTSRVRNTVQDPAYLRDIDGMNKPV

SMILES: COC(=O)[C@@H]1C[C@H](NC(=O)c2ccccc2)C(=O)[C@H]2[C@@]1(C)CC[C@H]1C(=O)O[C@H](c3ccoc3)C[C@]21C [Compound 3, reference compound]
- EC50 (κ opioid receptor (KOR)): > 10 µM
- Selectivity μ/κ (μ opioid receptor (MOR)): >3 000
- EC50 (μ opioid receptor (MOR); EC50 ± SEM μ): 0.003 ± 0.0004 µM

SMILES: COC(=O)[C@@H]1C=C(OC(=O)c2ccccc2C)C(=O)[C@H]2[C@@]1(C)CC[C@H]1C(=O)O[C@H](c3ccoc3)C[C@]21C [Series 2 Entry 11, (2S,4aR,6aR,7R,10aR,10bR)-Methyl 2-(furan-3-yl)-6a,10b-dimethyl-9-((2-methylbenzoyl)oxy)-4,10-dioxo-2,4,4a,5,6,6a,7,10,10a,10b-decahydro-1H-benzo[f]isochromene-7-carboxylate]
- EC50 (μ opioid receptor (MOR); Series 2 EC50): 0.24 ± 0.04 µM

SMILES: COC(=O)[C@@H]1C=C(OC(=O)c2cccc(C)c2)C(=O)[C@H]2[C@@]1(C)CC[C@H]1C(=O)O[C@H](c3ccoc3)C[C@]21C [Series 2 Entry 12, (2S,4aR,6aR,7R,10aR,10bR)-Methyl 2-(furan-3-yl)-6a,10b-dimethyl-9-((3-methylbenzoyl)oxy)-4,10-dioxo-2,4,4a,5,6,6a,7,10,10a,10b-decahydro-1H-benzo[f]isochromene-7-carboxylate]
- EC50 (μ opioid receptor (MOR); Series 2 EC50): 0.16 ± 0.03 µM

SMILES: COC(=O)[C@@H]1C=C(OC(=O)c2ccc(C)cc2)C(=O)[C@H]2[C@@]1(C)CC[C@H]1C(=O)O[C@H](c3ccoc3)C[C@]21C [Series 2 Entry 13, (2S,4aR,6aR,7R,10aR,10bR)-Methyl 2-(furan-3-yl)-6a,10b-dimethyl-9-((4-methylbenzoyl)oxy)-4,10-dioxo-2,4,4a,5,6a,7,10,10a,10b-decahydro-1H-benzo[f]isochromene-7-carboxylate]
- EC50 (μ opioid receptor (MOR); read-out: Series 2 EC50): 0.0218 ± 0.0003 µM

SMILES: COC(=O)[C@@H]1C=C(OC(=O)c2ccccc2OC)C(=O)[C@H]2[C@@]1(C)CC[C@H]1C(=O)O[C@H](c3ccoc3)C[C@]21C [Series 2 Entry 14, (2S,4aR,6aR,7R,10aR,10bR)-Methyl 2-(furan-3-yl)-9-((2-methoxybenzoyl)oxy)-6a,10b-dimethyl-4,10-dioxo-2,4,4a,5,6,6a,7,10,10a,10b-decahydro-1H-benzo[f]isochromene-7-carboxylate]
- EC50 (μ opioid receptor (MOR); Series 2 EC50): 2 ± 1 µM

SMILES: COC(=O)[C@@H]1C=C(OC(=O)c2cccc(OC)c2)C(=O)[C@H]2[C@@]1(C)CC[C@H]1C(=O)O[C@H](c3ccoc3)C[C@]21C [Series 2 Entry 15, (2S,4aR,6aR,7R,10aR,10bR)-Methyl 2-(furan-3-yl)-9-((3-methoxybenzoyl)oxy)-6a,10b-dimethyl-4,10-dioxo-2,4,4a,5,6,6a,7,10,10a,10b-decahydro-1H-benzo[f]isochromene-7-carboxylate]
- EC50 (μ opioid receptor (MOR); read-out: Series 2 EC50): 0.011 ± 0.002 µM

SMILES: COC(=O)[C@@H]1C=C(OC(=O)c2ccc(OC)cc2)C(=O)[C@H]2[C@@]1(C)CC[C@H]1C(=O)O[C@H](c3ccoc3)C[C@]21C [Series 2 Entry 16, (2S,4aR,6aR,7R,10aR,10bR)-Methyl 2-(furan-3-yl)-9-((4-methoxybenzoyl)oxy)-6a,10b-dimethyl-4,10-dioxo-2,4,4a,5,6,6a,7,10,10a,10b-decahydro-1H-benzo[f]isochromene-7-carboxylate]
- EC50 (μ opioid receptor (MOR); read-out: Series 2 EC50): 0.008 ± 0.003 µM

SMILES: COC(=O)[C@@H]1C=C(OC(=O)c2ccccn2)C(=O)[C@H]2[C@@]1(C)CC[C@H]1C(=O)O[C@H](c3ccoc3)C[C@]21C [Series 2 Entry 17, (2S,4aR,6aR,7R,10aR,10bR)-2-(Furan-3-yl)-7-(methoxycarbonyl)-6a,10b-dimethyl-4,10-dioxo-2,4,4a,5,6,6a,7,10,10bdecahydro-1H-benzo[f]isochromen-9-yl picolinate]
- EC50 (μ opioid receptor (MOR); Series 2 EC50): 0.41 ± 0.05 µM

SMILES: COC(=O)[C@@H]1C=C(OC(=O)c2cccnc2)C(=O)[C@H]2[C@@]1(C)CC[C@H]1C(=O)O[C@H](c3ccoc3)C[C@]21C [Series 2 Entry 18, (2S,4aR,6aR,7R,10aR,10bR)-2-(Furan-3-yl)-7-(methoxycarbonyl)-6a,10b-dimethyl-4,10-dioxo-2,4,4a,5,6,6a,7,10,10a,10b-decahydro-H-benzo[f]isochromen-9-yl nicotinate]
- EC50 (μ opioid receptor (MOR); Series 2 EC50): 0.0033 ± 0.0008 µM

SMILES: COC(=O)[C@@H]1C=C(OC(=O)c2ccncc2)C(=O)[C@H]2[C@@]1(C)CC[C@H]1C(=O)O[C@H](c3ccoc3)C[C@]21C [Series 2 Entry 19, (2S,4aR,6aR,7R,10aR,10bR)-2-(Furan-3-yl)-7-(methoxycarbonyl)-6a,10b-dimethyl-4,10-dioxo-2,4,4a,5,6,6a,7,10,10a,10bdecahydro-1H-benzo[f]isochromen-9-yl isonicotinate]
- EC50 (μ opioid receptor (MOR); Series 2 EC50): 0.006 ± 0.001 µM

SMILES: COC(=O)[C@@H]1C=C(OC(=O)c2cccs2)C(=O)[C@H]2[C@@]1(C)CC[C@H]1C(=O)O[C@H](c3ccoc3)C[C@]21C [Series 2 Entry 20, (2S,4aR,6aR,7R,6aR,7R,10aR,10bR)-Methyl 2-(furan-3-yl)-6a,10bdimethyl-4,10-dioxo-9-((thiophene-2-carbonyl)oxy)-2,4,4a,5,6,6a,7,10,10a,10b-decahydro-1H-benzo[f]isochromene-7-carboxylate]
- EC50 (μ opioid receptor (MOR); Series 2 EC50): 0.0014 ± 0.0008 µM

SMILES: COC(=O)[C@@H]1C=C(OC(=O)c2ccsc2)C(=O)[C@H]2[C@@]1(C)CC[C@H]1C(=O)O[C@H](c3ccoc3)C[C@]21C [Series 2 Entry 21, (2S,4aR,6aR,7R,10aR,10bR)-Methyl 2-(furan-3-yl)-6a,10bdimethyl-4,10-dioxo-9-((thiophene-3-carbonyl)oxy)-2,4,4a,5,6,6a,7,10,10a,10b-decahydro-1H-benzo[f]isochromene-7-carboxylate]
- EC50 (μ opioid receptor (MOR); Series 2 EC50): 0.0013 ± 0.0009 µM

SMILES: COC(=O)[C@@H]1C=C(OC(=O)c2cc3ccccc3o2)C(=O)[C@H]2[C@@]1(C)CC[C@H]1C(=O)O[C@H](c3ccoc3)C[C@]21C [Series 2 Entry 22, (2S,4aR,6aR,7R,10aR,10bR)-Methyl 9-((benzofuran-2-carbonyl)oxy)-2-(furan-3-yl)-6a,10-dimethyl-4,10-dioxo-2,4,4a,5,6,6a,7,10,10a,10bdecahydro-1H-benzo[f]isochromene-7-carboxylate]
- EC50 (μ opioid receptor (MOR); Series 2 EC50): 0.031 ± 0.009 µM

SMILES: COC(=O)[C@@H]1C=C(OC(=O)Cc2ccccc2)C(=O)[C@H]2[C@@]1(C)CC[C@H]1C(=O)O[C@H](c3ccoc3)C[C@]21C [Table 3 Entry 4, (2S,4aR,6aR,7R,10aR,10bR)-Methyl 2-(furan-3-yl)-6a,10bdimethyl-4,10-dioxo-9-(2-phenylacetoxy)-2,4,4a,5,6,6a,7,10a,10b-decahydro-1Hbenzo[f]isochromene-7-carboxylate]
- EC50 (μ opioid receptor (MOR); EC50): 0.13 ± 0.05 µM

SMILES: COC(=O)[C@@H]1C=C(OC(=O)CCc2ccccc2)C(=O)[C@H]2[C@@]1(C)CC[C@H]1C(=O)O[C@H](c3ccoc3)C[C@]21C [Table 3 Entry 5, (2S,4aR,6aR,7R,10 aR,10bR)-Methyl 2-(furan-3-yl)-6a,10bdimethyl-4,10-dioxo-9-((3-phenylpropanoyl)oxy)-2,4,4a,5,6,6a,7,10,10a,10b-decahydro-1H-benzo[f]isochromene-7-carboxylate]
- EC50 (μ opioid receptor (MOR); EC50): 0.5 ± 0.2 µM

SMILES: COC(=O)[C@@H]1C=C(OC(=O)/C=C/c2ccccc2)C(=O)[C@H]2[C@@]1(C)CC[C@H]1C(=O)O[C@H](c3ccoc3)C[C@]21C [Table 3 Entry 6, (2S,4aR,6aR,7R,10aR,10bR)-Methyl 9-(cinnamoyloxy)-2-(furan-3-yl)-6a,10b-dimethyl-4,10-dioxo-2,4,4a,5,6,6a,7,10,10a,10b-decahydro-1Hbenzo[f]isochromene-7-carboxylate]
- EC50 (μ opioid receptor (MOR); EC50): 0.03 ± 0.01 µM

SMILES: COC(=O)[C@@H]1C=C(OC(=O)c2cscn2)C(=O)[C@H]2[C@@]1(C)CC[C@H]1C(=O)O[C@H](c3ccoc3)C[C@]21C [Table 3 Entry 7, (2S,4aR,6aR,7R,10aR,10bR)-2-(Furan-3-yl)-7-(methoxycarbonyl)-6a,10b-dimethyl-4,10-dioxo-2,4,4a,5,6,6a,7,10,10a,10b-decahydro-1H-benzo[f]isochromen-9-yl thiazole-4-carboxylate]
- EC50 (μ opioid receptor (MOR); EC50): 0.008 ± 0.003 µM

SMILES: COC(=O)[C@@H]1C=C(OC(=O)c2cncs2)C(=O)[C@H]2[C@@]1(C)CC[C@H]1C(=O)O[C@H](c3ccoc3)C[C@]21C [Table 3 Entry 8, (2S,4aR,6aR,7R,10aR,10bR)-2-(Furan-3-yl)-7-(methoxycarbonyl)-6a,10b-dimethyl-4,10-dioxo-2,4,4a,5,6,6a,7,10,10a,10b-decahydro-1H-benzo[f]isochromen-9-yl thiazole-5-carboxylate]
- EC50 (μ opioid receptor (MOR); EC50): > 10 µM

SMILES: COC(=O)[C@@H]1C=C(OC(=O)c2cocn2)C(=O)[C@H]2[C@@]1(C)CC[C@H]1C(=O)O[C@H](c3ccoc3)C[C@]21C [Table 3 Entry 9, (2S,4aR,6aR,7R,10aR,10bR)-2-(Furan-3-yl)-7-(methoxycarbonyl)-6a,10b-dimethyl-4,10-dioxo-2,4,4a,5,6,6a,10,10a,10b-decahydro-1H-benzo[f]isochromen-9-yl oxazole-4-carboxylate]
- EC50 (μ opioid receptor (MOR); EC50): 0.03 ± 0.002 µM

SMILES: COC(=O)[C@@H]1C=C(OC(=O)c2cnco2)C(=O)[C@H]2[C@@]1(C)CC[C@H]1C(=O)O[C@H](c3ccoc3)C[C@]21C [Table 3 Entry 10, (2S,4aR,6aR,7R,10aR,10bR)-2-(Furan-3-yl)-7-(methoxycarbonyl)-6a,10b-dimethyl-4,10-dioxo-2,4,4a,5,6,6a,7,10,10a,10b-decahydro-1H-benzo[f]isochromen-9-yl oxazole-5-carboxylate]
- EC50 (μ opioid receptor (MOR); EC50): > 10 µM

SMILES: COC(=O)[C@@H]1C=C(OC(=O)c2cncnc2)C(=O)[C@H]2[C@@]1(C)CC[C@H]1C(=O)O[C@H](c3ccoc3)C[C@]21C [Table 3 Entry 11, (2S,4aR,6aR,7R,10aR,10bR)-2-(Furan-3-yl)-7-(methoxycarbonyl)-6a,10b-dimethyl-4,10-dioxo-2,4,4a,5,6,6a,7,10,10a,10b-decahydro-1H-benzo[f]isochromen-9-yl pyrimidine-5-carboxylate]
- EC50 (μ opioid receptor (MOR); EC50): 0.006 ± 0.001 µM

SMILES: COC(=O)[C@@H]1C=C(OC(=O)c2cc3ccccc3s2)C(=O)[C@H]2[C@@]1(C)CC[C@H]1C(=O)O[C@H](c3ccoc3)C[C@]21C [Table 3 Entry 13]
- EC50 (μ opioid receptor (MOR); EC50): 0.006 ± 0.001 µM

From patent US10125129B2 (priority 2016, dated 2018)
